Data from US7074925B1, “N-substituted derivatives of 5-oxyiminobarbituric acid” (priority 1998, dated 2006).
Values after ≈ are worked out from the molar mass of the structure shown.

Assays:
C.trachomatis D323 = assay: Action on Chlamydia trachomatis in cell culture; assay type: cell-based; conditions: 100 mg/l
Procedure: The antimicrobial activity of the claimed compounds was studied relative to C.trachomatis […], which is a standard strain from the collection of the chair of microbiology of St. Petersburg State Pavlov Medical University. […] Cell cultures McCoy and L929 obtained from the Institute of Cytology of RAS were used in this work. Cells were grown in flasks made of neutral glass in the medium RPMI-1640 with the addition of 10% of fetal calf serum. The test was performed in glass (non-toxic) flat-bottom flasks with cover glasses. The cells were introduced into the medium in the final concentration of […]. […] Simultaneously, tested compounds in a final concentration of 100 mg/l were added to the cells. The sample was centrifuged at 2400 G during 60 minutes at room temperature and incubated at 37° C. for 2 hours. […] The samples were doubled using the medium without cycloheximide so as to exclude its effect on the investigated compounds. The samples were incubated in a CO2-incubator for 48 hours. […] The effect of the action of substance was determined by analysis of the monolayer state and number of cells with CPI when compared with the control (cell culture infected with C.trachomatis […]); in doing so, the number of unchanged cells, that were counted in 100 visual fields obtained using the special net of the microscope eyepiece, was taken into consideration. […] Control of cell culture: morphology of cells and state of monolayer correspond to the given type of the cells; control of chlamydia growth in the cell culture: presence of CPI in the monolayer; control of action of standard antimicrobial agent: reduction of number of CPI in the monolayer as compared to the previous control; control of toxicity of the claimed compounds: toxicity is absent; control of action of solvents: toxic action on cells is absent.

[1] = test system: primary culture of human lymphocytes (IFN-α production); assay: Interferon-inducing activity in primary culture of human lymphocytes; assay type: cell-based
[2] = Analgesic activity, tail withdrawal from radiant heat; assay type: in vivo, mice
Procedure: The time needed to draw back a tail placed under a directed source of radiant heat was estimated in a group of 3 mice. Prolongation of the response time by more than 50% after intraperitoneal dosing a substance (30 mg/kg) indicated analgesic activity. Morphine sulfate (2 mg/kg) was utilized as a reference agent.

[3] = test system: Human's platelet aggregation; assay: Antiaggregational properties, ADP-induced platelet aggregation; assay type: cell-based; conditions: 100 μg/ml, ADP […], platelet-enriched human plasma
Text: Human's platelet aggregation was investigated in plasma of healthy 50±3 years donors that was enriched by thrombocytes, by means of aggregometer FRM-1. […] Magnitude of a maximum non-reversible platelet aggregation in the control samples (solvent) was adopted as 100%, and that in tested samples was counted as the percentage compared to the control.

[4] = Psychostimulating activity, symptom score; assay type: in vivo, mice; conditions: tested substances perorally 300 mg/kg, one hour after; maximum 30 points, more than 12 significant
[5] = Antioxidant action, riboflavine chemiluminescence; assay type: biochemical; conditions: solvent water, phosphate buffer pH 9.1
Text: To assess a general antioxidant activity the method of riboflavine chemiluminescence was used. The test substance was introduced into a system consisted of phosphate buffer (pH 9.1), solution of riboflavine, and solution of bivalent iron sulfate. Chemiluminescence was initiated by 0.1% solution of hydrogen peroxide and registered by means of luminometer. […] Ascorbic acid was used as a reference agent.

[6] = Determination of maximal tolerable dose; assay type: in vivo; conditions: oral administration, mice, observed 72 hours; 300 was the maximally utilized one
Procedure: Tested substance was introduced perorally (in dose of 300 mg/kg) through a gastric tube or intraperitoneally (in dose of 100 mg/kg) to no-breed white mice with mass 18-20 g (each tested group consisted of 3 males and 3 females). Then the mouse state was observed during 72 hours. Absence of symptoms characteristic of toxic effects, or absence of animal death during the given time allows to make a conclusion that the toxicity of the test substance is low. If acute toxicity effects are observed, the dose is reduced to find maximal tolerable dose.

[7] = test system: Herpes virus of the type I (HSV-I/Leningrad/248/88); assay: Effect on Herpes virus, cytopathogenic action on Vero cells; assay type: cell-based, Herpes Simplex virus; conditions: compound 100 μg/ml

Cc1ccccc1N1C(=O)C(=NO)C(=O)NC1=S [XLII]
percentage of cell protection from infection (C.trachomatis D323): (60%)
Number of unchanged cells (C.trachomatis D323; 48 hours, counted in 100 visual fields, cell control 8.000, infected cells 6.000): 7.200
Content of IFN in induction mixture after 24-hour incubation ([1]; substance 1 mg/l): 28.0 ± 1.5 IU/3 × 10^4 lymph./ml
Content of IFN in induction mixture after 24-hour incubation ([1]; substance 10 mg/l): 45 ± 1.2 IU/3 × 10^4 lymph./ml
Content of IFN in induction mixture after 24-hour incubation ([1]; substance 100 mg/l): 97.5 ± 1.8 IU/3 × 10^4 lymph./ml
Latent period of response, before dosing ([2]; before intraperitoneal 30 mg/kg): 7.8
Latent period of response, 30 minutes after dosing ([2]; intraperitoneal 30 mg/kg): 11.3
% of inhibition of platelet aggregation [3]: 35.8 ± 3.2%
Number of points (psychostimulation) [4]: 15
IC50, suppressing chemiluminescence by 50% [5]: 9.99 µg/mL (≈ 37.9 µM)
Maximal tolerable dose, concentration of test substances [6]: 300 mg/kg
Quantity of the unchanged cells (number of cells in 100 visual fields) ([7]; Vero cells, 36 hours, cell control 10000): 5000
percentage of protection of cells from virus ([7]; compared to the control of cell culture): (50%)
